The results in this text go back to ChEMBL document CHEMBL2424529, “Nonpeptidic propargylamines as inhibitors of lysine specific demethylase 1 (LSD1) with cellular activity” (J Med Chem, 2013).

pIC50: −log10 of the molar value.

The target in experiment [1] is T1, Amine oxidase [flavin-containing] A (Homo sapiens, UniProt P21397).
T1 sequence (P21397 whole entry): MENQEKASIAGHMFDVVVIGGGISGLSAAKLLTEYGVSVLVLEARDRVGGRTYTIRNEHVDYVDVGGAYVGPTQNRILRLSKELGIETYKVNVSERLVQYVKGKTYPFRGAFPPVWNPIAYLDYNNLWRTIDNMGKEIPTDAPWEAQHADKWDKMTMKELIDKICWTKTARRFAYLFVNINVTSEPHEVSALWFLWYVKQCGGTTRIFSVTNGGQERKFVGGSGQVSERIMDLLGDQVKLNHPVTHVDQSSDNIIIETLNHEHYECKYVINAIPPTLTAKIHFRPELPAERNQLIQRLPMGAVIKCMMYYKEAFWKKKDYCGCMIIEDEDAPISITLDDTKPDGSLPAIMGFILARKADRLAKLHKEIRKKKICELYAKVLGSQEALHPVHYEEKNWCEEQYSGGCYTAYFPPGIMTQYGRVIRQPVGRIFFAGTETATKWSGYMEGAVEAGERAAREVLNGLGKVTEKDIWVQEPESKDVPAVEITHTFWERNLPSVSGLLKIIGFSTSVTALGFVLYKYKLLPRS
Conditions: 1 h, read-out: INH.
Description: Inhibition of MAOA (unknown origin) using kynuramine as substrate at 10 uM after 1 hr by fluorescence assay relative to control

Experiment [2] deals with T2, Amine oxidase [flavin-containing] B (Homo sapiens, UniProt P27338).
T2 sequence (P27338 whole entry): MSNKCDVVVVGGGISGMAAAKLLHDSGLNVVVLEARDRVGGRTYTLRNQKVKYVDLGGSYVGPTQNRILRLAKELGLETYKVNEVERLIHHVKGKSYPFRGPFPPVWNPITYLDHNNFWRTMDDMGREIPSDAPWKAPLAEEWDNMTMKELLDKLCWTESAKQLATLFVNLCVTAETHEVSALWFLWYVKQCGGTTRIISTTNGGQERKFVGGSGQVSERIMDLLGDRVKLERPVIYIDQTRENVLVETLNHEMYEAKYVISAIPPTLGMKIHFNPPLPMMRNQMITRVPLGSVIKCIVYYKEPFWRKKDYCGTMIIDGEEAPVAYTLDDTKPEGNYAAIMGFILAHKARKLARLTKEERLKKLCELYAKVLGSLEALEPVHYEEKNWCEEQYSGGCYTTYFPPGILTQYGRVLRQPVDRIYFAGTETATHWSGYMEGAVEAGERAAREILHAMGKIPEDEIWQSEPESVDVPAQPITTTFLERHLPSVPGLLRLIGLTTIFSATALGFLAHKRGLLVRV
Conditions: 1 h, read-out: INH.
Description: Inhibition of MAOB (unknown origin) using kynuramine as substrate at 10 uM after 1 hr by fluorescence assay relative to control

For experiment [3], the target named is T2, Amine oxidase [flavin-containing] B. As to conditions: 1 h, read-out: INH. The source holds these as a separate data set.
Description: Inhibition of MAOB (unknown origin) using kynuramine as substrate at 500 uM after 1 hr by fluorescence assay relative to control
For experiment [4], the target named is T1, Amine oxidase [flavin-containing] A. As to conditions: 1 h, read-out: INH. This is another data set of the same source.
Description: Inhibition of MAOA (unknown origin) using kynuramine as substrate at 100 uM after 1 hr by fluorescence assay relative to control
Experiment [5] addresses T3, Lysine-specific histone demethylase 1A (Homo sapiens, UniProt O60341). In words: biochemical. Format: cell-based, Sf9.
Description: Inhibition of LSD1 (unknown origin) expressed in Sf9 cells using H3K4(me2) as substrate preincubated for 30 mins prior to substrate addition measured after 90 mins by horseradish peroxidase assay
Experiment [6] addresses T2, Amine oxidase [flavin-containing] B. Description: Inhibition of MAOB (unknown origin) using kynuramine as substrate after 1 hr by fluorescence assay.
Experiment [7] shares this target. Conditions: 1 h, read-out: INH. This is another data set of the same source.
Description: Inhibition of MAOB (unknown origin) using kynuramine as substrate at 100 uM after 1 hr by fluorescence assay relative to control
Experiment [8] deals with T3, Lysine-specific histone demethylase 1A. In words: Inhibition of LSD1 (unknown origin) expressed in Sf9 cells using H3K4(me2) as substrate at 200 uM preincubated for 30 mins prior to substrate addition measured after 90 mins by horseradish peroxidase assay relative to control.
Experiment [9] concerns the target T1, Amine oxidase [flavin-containing] A. In words: Inhibition of MAOA (unknown origin) using kynuramine as substrate after 1 hr by fluorescence assay.

Turning to `C#CCNCC(O)COc1ccc2ccccc2c1` (stereo unspecified), the inhibition at 10 µM in experiment [1] was found to be 65%; in [2] it was 19%.

On to `CC#CCNCCCC[C@H](NC(=O)c1ccccc1)C(=O)OC(C)(C)C`, for which the inhibition at 500 µM in experiment [3] came out at 51%. Moreover, in experiment [4], the inhibition at 100 µM stood at 45%. For the same compound, the pIC50 (usually −log10 of the IC50, conventionally taken in molar units) in experiment [5] was 3.88.

`OC(CNC1CC1)COc1ccc2cc(Br)ccc2c1` (stereo unspecified): the inhibition at 10 µM in experiment [1] and in [2] was 100% each time. The same compound gave a pIC50 in experiment [5] of 3.95.

Compound `C#CCN(C)CCCOc1cccc(NC(=O)c2ccccc2)c1` showed a pIC50 in [6] of 7.00. For the same compound, the inhibition at 10 µM in experiment [1] turned out to be 73%.

The compound `C#CCNCCCC[C@H](NC(=O)c1ccccc1)C(=O)OC(C)(C)C` gave a pIC50 in [5] of 3.84.

Take `C#CCN(C)CC(O)COc1cccc2ccccc12` (stereo unspecified): in experiment [7], the inhibition at 100 µM is 32%.

For `C#CCNCCCOc1cccc(NC(=O)c2ccccc2)c1`, the inhibition at 10 µM in experiment [1] turned out to be 62%.

On to `OC(CNC1CC1)COc1ccccc1-c1ccccc1` (stereo unspecified), for which the inhibition at 100 µM in experiment [7] stood at 45%.

Regarding `C#CCN(C)CCCC[C@H](NC(=O)OCc1ccccc1)C(=O)OCc1ccccc1`, the inhibition at 100 µM in [4] was 36%.

`C#CCN(C)CC(O)COc1ccc(-c2ccccc2)cc1` (stereo unspecified): the inhibition at 10 µM in [2] is 100%.

As for `OC(CNC1CC1)COc1ccc2ccccc2c1` (stereo unspecified), in experiment [2], the inhibition at 10 µM was 94%.

Turning to `C#CCNCC(O)COc1ccccc1-c1ccccc1` (stereo unspecified), the inhibition at 100 µM in [7] stood at 27%. In experiment [8], this compound had an inhibition of 36.3%. Further, in experiment [1], the inhibition at 10 µM is 5%.

Consider `OC(CNC1CC1)COc1ccc(-c2ccccc2)cc1` (stereo unspecified), for which the inhibition at 10 µM in [1] and in [2] was 100% throughout.

Compound `C#CCNCCCOc1cccc(C(=O)NC(C)C)c1` gave a pIC50 in experiment [6] of 4.77. For the same compound, the inhibition at 100 µM in [4] is 100%.

For the compound `C#CCNCCCC[C@H](NC(=O)OCc1ccccc1)C(=O)OCc1ccccc1`, in [3], the inhibition at 500 µM was 67%.

On to `C#CCNCC(O)COc1ccc(-c2ccccc2)cc1` (stereo unspecified), for which the results for the negative logarithm of the IC50 (pIC50) in [6] and in experiment [9] were 7.22 and 6.26, respectively.

`C#CCN(C)CC(O)COc1ccc2ccccc2c1` (stereo unspecified): in [2], the inhibition at 10 µM is 29%.

As to `C#CCN(C)CC(O)COc1ccccc1-c1ccccc1` (stereo unspecified), in experiment [7], the inhibition at 100 µM was 30%.

`C#CCN(C)CC(O)COc1ccc2cc(Br)ccc2c1` (stereo unspecified): the inhibition at 10 µM in [2] came to 100%.

In turn, `C#CCNCCCOc1cccc(C(=O)NCc2ccccc2)c1` gave a pIC50 in [6] of 5.24.
